Measured values from US20140162942A1, “INHIBITION OF CYP3A DRUG METABOLISM” (priority 2010, published 2014).

Columns and labels:
[1] = biological target: HCV NS3 serine protease (Hepatitis C virus genotype 1a, UniProt P27958); details: as described in WO2005/015579; cited from earlier work
[2] = system: CYP3A4/5; experiment: Clinical study: effect of boceprevir on the pharmacokinetic profile of midazolam in healthy adult subjects; details: for AUC(0-t) / Cmax / Tmax: both, human, in vivo, 4 mg; for Tmax: MDZ Tmax
Description: A clinical study was conducted to determine the effects of boceprevir on the pharmacokinetic (PK) profile of midazolam (MDZ) to assess the ability of boceprevir to inhibit CYP3A4/5 in vivo by monitoring its effect on the metabolism of MDZ, a sensitive CYP3A4/5 substrate.
This study was conducted in healthy adult subjects (seven male and five female subjects), at a single center, in conformance with Good Clinical Practices. The study used a fixed-sequence design ([…]). The PK profile of MDZ and its metabolite (1-hydroxy midazolam [1-0H-MDZ)) was determined when MDZ was administered alone and compared with the PK profile after co-administration of boceprevir as well as following a washout period of 7 days after boceprevir administration.
Boceprevir (BOC) 800 mg was administered as 4×200 mg capsules. MDZ 4 mg was administered as a single dose of an oral solution.
Day 1: MDZ 4 mg (oral solution, single dose)
Days 1 to 5: Boceprevir 800 mg (4×200 mg capsules) TID
Day 6: MDZ 4 mg (oral solution, single dose) and boceprevir 800 mg (4×200 mg capsules) TID Days 8 and 13: MDZ 4 mg (oral solution, single dose)
Blood samples for PK analyses were collected: for MDZ and 1-0H-MDZ: Days −1, 6, 8, and 13: predose (Ohr) and at 0.5, 1, 2, 3, 4, 8, 12, and 24 hours postdose for boceprevir: predose (Ohr) on Day 4 and Day 5 and on Day 6: predose (Ohr), and at 0.5, 1, 2, 3, 4, 6, and 8 hr postdose. The 8 hour sample was to be collected prior to the administration of the next dose of Boceprevir.

Sequence of HCV NS3 serine protease (P27958 1658-1711): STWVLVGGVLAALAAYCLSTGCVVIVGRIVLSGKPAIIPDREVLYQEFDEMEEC
Sequence of HCV NS3 serine protease (P27958 1027-1657): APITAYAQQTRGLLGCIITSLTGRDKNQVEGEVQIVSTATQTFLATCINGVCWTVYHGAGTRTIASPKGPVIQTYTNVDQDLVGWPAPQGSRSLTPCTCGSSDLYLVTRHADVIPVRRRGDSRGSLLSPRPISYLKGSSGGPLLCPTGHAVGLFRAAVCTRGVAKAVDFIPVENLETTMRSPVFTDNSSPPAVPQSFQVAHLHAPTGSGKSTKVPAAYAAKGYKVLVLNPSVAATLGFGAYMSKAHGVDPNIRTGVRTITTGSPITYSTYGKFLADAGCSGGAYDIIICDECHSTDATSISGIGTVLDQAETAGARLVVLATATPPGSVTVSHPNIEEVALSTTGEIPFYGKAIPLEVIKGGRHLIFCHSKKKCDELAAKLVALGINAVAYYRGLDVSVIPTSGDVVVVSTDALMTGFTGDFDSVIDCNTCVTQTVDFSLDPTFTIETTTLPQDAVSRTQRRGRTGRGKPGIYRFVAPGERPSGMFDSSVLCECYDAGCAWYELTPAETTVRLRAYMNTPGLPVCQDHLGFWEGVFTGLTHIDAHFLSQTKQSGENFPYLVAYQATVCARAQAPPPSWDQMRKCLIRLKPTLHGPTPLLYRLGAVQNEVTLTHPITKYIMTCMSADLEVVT

Row | SMILES | in vitro HCV NS3 serine protease inhibitory activity compared with the compound of Formula 1c [1] | Plasma concentrations of MDZ, return to baseline after boceprevir ([2]; 48 hours post last administration of boceprevir) | AUC(0-t) ([2]; MDZ AUC (0-24 hr) LS Mean, MDZ Alone (Day 8)) | AUC(0-t) ([2]; MDZ AUC (0-24 hr) LS Mean, MDZ Alone (Day 13)) | AUC(0-t) ([2]; MDZ AUC (0-24 hr) LS Mean, MDZ Alone (Day-1)) | AUC(0-t) ([2]; MDZ AUC(0-24 hr), MDZ Alone (Day 8), after boceprevir) | AUC(0-t) ([2]; MDZ AUC(0-24 hr), MDZ Alone (Day 13), after boceprevir) | Cmax ([2]; MDZ Cmax LS Mean, MDZ Alone (Day 8)) | Cmax ([2]; MDZ Cmax LS Mean, MDZ Alone (Day 13)) | Cmax ([2]; MDZ Cmax LS Mean, MDZ Alone (Day-1)) | Cmax ([2]; MDZ Cmax, MDZ Alone (Day 8), after boceprevir) | Cmax ([2]; MDZ Cmax, MDZ Alone (Day 13), after boceprevir) | Tmax ([2]; MDZ Alone (Day 8), after boceprevir) | Tmax ([2]; MDZ Alone (Day 13), after boceprevir) | AUC(0-t) ([2]; po, MDZ AUC(0-24 hr), MDZ Alone (Day-1), MDZ 4 mg oral, n = 12) | Cmax ([2]; po, MDZ Cmax, MDZ Alone (Day-1), MDZ 4 mg oral, n = 12) | Tmax ([2]; po, MDZ Alone (Day-1), MDZ 4 mg oral, n = 12)
1 | CC(C)(C)NC(=O)N[C@H](C(=O)N1C[C@H]2[C@@H]([C@H]1C(=O)N[C@@H](CC1CCC1)C(=O)C(N)=O)C2(C)C)C(C)(C)C [Formula 1b, (1R,2S,5S)—N-[(1S)-3-amino-1-(cyclobutylmethyl)-2,3-dioxopropyl]-3-[(2S)-2[[[(1,1-dimethylethyl)amino]carbonyl]amino]-3,3-dimethyl-1-oxobutyl]-6,6-dimethyl-3-azabicyclo[3.1.0]hexane-2-carboxamide] | significantly higher | – | – | – | – | – | – | – | – | – | – | – | – | – | – | – | –
2 | Cc1ncc2n1-c1ccc(Cl)cc1C(c1ccccc1F)=NC2 [MDZ, midazolam] | – | returned to baseline values by Day 8 | 56.1 ng·h/mL | 43.8 ng·h/mL | 52.9 ng·h/mL | 59.2 ng·h/mL | 45.4 ng·h/mL | 9.82 ng/mL | 8.94 ng/mL | 9.96 ng/mL | 10.3 ng/mL | 9.15 ng/mL | 2 h | 1 h | 56.4 ng·h/mL | 10.3 ng/mL | 2 h
